Legend:
HeLa cells = assay: HeLa cell viability by MTT at the end of the IDO1/kynurenine assay; type: cell-based, human; conditions: under the experimental conditions of the IDO1 assay
From the text: It is well known that IDO1 is broadly expressed in human cancers and is induced by pro-inflammatory cytokines, such as interferon gamma (IFN-γ) and tumour necrosis factor alpha (TNF-α)[41]. Here we utilised a human cervical cancer cell line HeLa that endogenously expresses IDO1 upon IFN-γ treatment to evaluate the IDO1 inhibitory activity of the synthesised compounds by measuring kynurenine secreted into the media. This cell-based assay, as a rapid and simple method for determination IDO1/kynurenine, is closely related to the potency of the enzyme assay and has been widely used to identify various IDO1 inhibitors[19]^,[23]^,[29]^,[42]. In addition, cytotoxic compounds can reduce cell viability, which will decrease the IDO1 levels and then lower the conversion of tryptophan to kynurenine. Thus, we also employed this cellular assay to detect false positive IDO1 inhibitors and cytotoxic compounds by measuring HeLa cell viability. Clinical candidate navoximod was used as an assay control.
Furthermore, the viability of HeLa cells was evaluated by the MTT method at the end of the assay.

CT26 colon carcinoma = CT26 colon carcinoma xenograft in immunocompetent BALB/c mice (tumour growth, H&E, IHC, TUNEL, spleen FACS); type: in vivo
Experimental: (§1) BALB/c mice (6–8 weeks old, 18–22 g) were supplied by Model Animal Research Centre of Nanjing University (Nanjing, China). Mice were maintained under standard specific-pathogen-free (SPF) conditions (21 ± 2 °C and 12-h light: dark cycle). Animal welfare and experimental procedures were carried out strictly in accordance with the Guide for the Care and Use of Laboratory Animals (The Ministry of Science and Technology of China, 2006) and the related ethical regulations of our university. All efforts were made to minimise animals’ suffering and to reduce the number of animals used. Mouse colon cancer cells (CT26) and melanoma cells (B16F1) were cultured and collected by centrifugation (1000 rpm, 5 min) and washed twice with ice-cold PBS. Then cells were diluted to 1 × 10^7/ml and 1 × 10^6 CT26/B16F1 cells (in 0.1 ml PBS) were injected subcutaneously into the right flanks of mice. All mice formed tumours three days after injection. Then mice were randomly distributed into five groups (n = 10/8) according to tumour volumes. 5d ([…], 12.5 mg/kg) were administered (i.g) to each group respectively every day. 5-FU (25 mg/kg) and Cis-platinum (1 mg/kg) were administered (i.p) every three days. Tumour length and tumour width were measured with a Vernier calliper every three days. Tumour volumes were measured and calculated using the equation volume = a × b^2/2, where “a” is the maximal […] and “b” is maximal orthogonal width. After the administration were completed, mice were weighed, euthanized, and tumours were removed and the weight were taken.
(§2) For immunohistochemistry staining, the sections were deparaffinized, rehydrated, and washed in 1% PBS-Tween 20, and then treated with 2% hydrogen peroxide, blocked with 3% goat serum (Life Technology, 16210–064) and incubated for 2 h at room temperature with specific primary antibodies. Then the slides were incubated with streptavidin-HRP (Shanghai Gene Company, GK500705) for 40 min, then stained with DAB (Shanghai Gene Company, GK500705) substrate and counter-stained with haematoxylin. Images were acquired by microscopy (Olympus IX51).
Given that it was the most prominent inhibitor in vitro, we chose compound 5d for further pharmacodynamic evaluation in vivo. Bowel cancer is the third leading cause of cancer in the world, thus we first evaluated the efficacy of compound 5d on the growth of murine CT26 colon carcinoma xenograft model in immunocompetent BALB/c mice. Fluorouracil (5-FU) is one of the most commonly used drugs to different cancers including bowel cancer, and was used as the positive control. The CT26 tumour-bearing mice were treated with 5d (3.125, 6.25, 12.5 mg/kg, i.g, every day) or 5-FU (25 mg/kg, i.p, […]). Tumour volumes were measured every two days for 14 days.
Figure 7. Compound 5d suppressed colon cancer growth in immunocompetent mice. 1 × 10^6 CT26 cells were transplanted subcutaneously into the armpit of the BALB/c mice. Three days after transplantation, mice were randomly allocated to vehicle control or treatment groups (n = 10). Drugs were administered on days 1–14. Tumour volume (A) and mice body weight (B) were recorded. After sacrifice, solid tumours were separated and weighed (C, D). Data represent mean ± SEM, n = 10, *p < 0.05, **p < 0.01 vs vehicle.
In order to further observe morphological changes in tumour tissues after administration of compound 5d, the tumour tissue sections obtained from the BALB/c mice bearing CT26 colorectal tumours were stained with haematoxylin-eosin (H&E) to highlight different tissue structures, such as the nucleus and cytoplasm.
Then, to understand the mechanism of tumour cell death, we detected the level of proliferating cell nuclear antigen (PCNA) protein and tumour cell apoptosis by immunohistochemistry (IHC) and terminal deoxynucleotidyl transferase dUTP nick end labelling (TUNEL) experiments, respectively. […]

B16F1 melanoma = B16F1 melanoma xenograft in BALB/c mice; type: in vivo, mouse
Experimental: as §1, §2
In addition, we also utilised a B16F1 melanoma mouse xenograft model to observe the efficacy of compound 5d on the other tumours. Malignant melanoma is a highly invasive tumour and its immunotherapy has been receiving attention in recent years. As mentioned above, B16F1 is a murine melanoma cell line that expresses IDO1. The mouse xenograft model was established by subcutaneously implanting B16F1 melanoma cells into BALB/c mice and treated with 5d (3.125, 6.25, 12.5 mg/kg, i.g, every day) or the positive control Cis-platinum (1 mg/kg, i.p, every other day). Tumour volumes were measured every two days for 11 days.
Figure 13. Compound 5d suppressed melanoma growth in mice. 1 × 10^6 melanoma cells were transplanted subcutaneously into the armpit of the BALB/c mice. Three days after transplantation, mice were randomly allocated to vehicle control or treatment groups (n = 6). Drugs were administered on days 1–11. (A) Tumour volume and mouse body weight (B) were recorded. After sacrifice, solid tumours were separated and weighed (C, D). Data represent mean ± SEM, n = 6, *p < 0.05, **p < 0.01 vs vehicle.
Analogously, we also performed H&E, IHC and TUNEL experiments on the B16F1 melanoma tissues (Figure 14 and 15).

[1] = BALB/c mice, 12.5 mg/kg i.g, every day, 14 days
[2] = CT26 tumour tissue, BALB/c mice, 3.125-12.5 mg/kg i.g

Which results are given for C=CC(=O)Nc1ccc(S(=O)(=O)NCc2cccc(Cl)c2)cc1 [5d, N-(4-(N-(3-Chlorobenzyl)sulfamoyl)phenyl)acrylamide]?
HeLa cell viability (HeLa cells): without affecting the cell viability; body weight of the mice (CT26 colon carcinoma; 14-day treatment, vs vehicle group): no significant change in body weight; reduction of average tumour weight (CT26 colon carcinoma; [1]): 37.5%; reduction of tumour volume (CT26 colon carcinoma; [1]): 35.9%; tumour growth (CT26 colon carcinoma; BALB/c mice, 3.125, 6.25, 12.5 mg/kg, i.g, every day, 14 days, vs vehicle): significantly suppressed the growth of tumour in a dose-dependent manner; number of tumour cells (H&E staining) (CT26 colon carcinoma; [2]): decreased the number of tumour cells; tumour cell apoptosis (TUNEL) (CT26 colon carcinoma; [2]): significantly induced the tumour cell apoptosis in a dose-dependent manner; expression of IFN-γ (IHC) (CT26 colon carcinoma; CT26 tumour tissue, BALB/c mice, 3.125-12.5 mg/kg i.g, vs vehicle): increased the expression of IFN-γ in a dose-dependent manner; granzyme B levels (IHC) (CT26 colon carcinoma; CT26 tumour tissue, BALB/c mice, all doses): elevated granzyme B levels; FoxP3+ Treg cells in spleen (FACS) (CT26 colon carcinoma; CT26 tumour-bearing mice, 3.125 mg/kg): 4.79%; FoxP3+ Treg cells in spleen (FACS) (CT26 colon carcinoma; CT26 tumour-bearing mice, 6.25 mg/kg): 4.13%; FoxP3+ Treg cells in spleen (FACS) (CT26 colon carcinoma; CT26 tumour-bearing mice, 12.5 mg/kg): 2.62%; number of FoxP3+ Treg cells in spleen (in words) (CT26 colon carcinoma; CT26 tumour-bearing mice, 3.125-12.5 mg/kg): decreased the number of FoxP3^+ Treg cells in a dose-dependent manner; reduction of FoxP3+ Treg cells compared with the vehicle group (CT26 colon carcinoma; spleen, high dose group): 2.4 fold; IFN-γ expression (IHC) (B16F1 melanoma; B16F1 melanoma tissue): up-regulating IFN-γ expression; granzyme B (IHC) (B16F1 melanoma; B16F1 melanoma tissue): stimulating granzyme B secretion; number of tumour cells (H&E, PCNA, TUNEL) (B16F1 melanoma; B16F1 melanoma tissue): reduce the number of tumour cells by inhibiting proliferation and inducing apoptosis; tumour growth (tumour volume and tumour weight) (B16F1 melanoma; BALB/c mice, 3.125, 6.25, 12.5 mg/kg, i.g, every day, 11 days, vs vehicle): significantly suppressed the growth of tumour in a dose-dependent manner; body weight (B16F1 melanoma; BALB/c mice, 3.125-12.5 mg/kg i.g, 11 days): without significant body weight loss; reduction of average volume of tumour (B16F1 melanoma; BALB/c mice, high dose, 11 days): 34.3%

Reference: publication PMC7336998, “Discovery of secondary sulphonamides as IDO1 inhibitors with potent antitumour effects in vivo” (Journal of Enzyme Inhibition and Medicinal Chemistry, 2020)
